# Measured values from patent US20050059694A1, “New use of 11.28-dioxa-4-azatricyclo [22.3.1.04,9] octacos-18-ene derivatives and pharmaceutical compositions containing them” (Fujisawa Pharmaceutical Co., Ltd., priority 1987, published 2005).
# Assays:
# [1] = tested on: TPA-induced PGE2 release from macrophages; assay: Inhibition of macrophage activation (TPA-induced PGE2 release); assay type: cell-based, NMRI mice; conditions: PGE2 release from TPA-stimulated mouse peritoneal macrophages
# Protocol: 4. Inhibition of Macrophage Activation (Inhibition of TPA-induced PGE2 release)
# Peritoneal exudate cells of NMRI mice pretreated 3 days earlier with 1.5 ml thioglycolate i.p. are harvested by peritoneal lavage, washed with deficient PBS and resuspended in DMEM medium supplemented with 10% FCS. 1×10^6 cells are transferred to each well of a 24-wells plate, and the cells are left to adhere 4 hours at 37° and 5% CO2. The cells are then washed twice with deficient PBS. The resultant, more than 95% pure macrophage population is stimulated with TPA ([…]) in DMEM-medium devoid of FCS. The conditioned media are centrifuged and the PGE2-contents determined using a ^125I-radioimmunotest. PGE2-release inhibition with the test substances is measured as percentage inhibition compared to the controls.
# [2] = tested on: human polymorphonuclear neutrophil leukocytes; assay: Inhibition of FMLP-stimulated oxidative burst (chemiluminescence) in PMNL; assay type: cell-based; conditions: minimal inhibiting concentration with significant inhibition of all 3 chemiluminescence parameters; FMLP stimulus
# Protocol: (§1) 3. Inhibition of the Oxidative Burst in Human Polymorphonuclear neutrophil leukocytes (inhibition of FMLP—or, respectively, A 23187-stimulated chemiluminescence):
# (§2) Polymorphonuclear leukocytes (PMNL) are prepared from human peripheral blood (M. Schaude et al., Mycoses 31 (5) [1988]259-267). Stock solutions of the test substances (500 mg/l) are freshly prepared on the day of experiment in 5% DMSO/RPMI 1640. For the determination of the chemiluminescence (CL) with Biolumat LB 9505 the luminescence indicator DMNH is used. […] The CL-reaction is started by addition of either 100 μl of the peptide FMLP (4×10^−6 M) or of the calcium ionophor A 23187 (4×10^−6 M). […] 3 parameters are used for evaluation of the results: peak intensity of the radiated light, time span up to the peak and surface area under the reaction curve. As minimal inhibiting concentration the concentration of test substance is chosen where a significant inhibition of all 3 parameters can be observed (Table 4).
# [3] = tested on: oxazolone allergy (allergic contact dermatitis, DTH-reaction); assay: Oxazolone allergy (mouse), topical administration; assay type: in vivo; conditions: ethanol as solvent, pinna weight difference 24 hours after second exposure
# Protocol: 1. Determination of the activity after topical administration in models of allergic or allergen-induced contact dermatitis (DTH-reaction) 1.1. Oxazolone Allergy (Mouse): 10 μl of a 2% oxazolone solution are applied onto the abdominal skin of mice for sensitization, 8 days later a second exposure with 10 μl of a 2% oxazolone solution is performed by application on the peripheral internal surface of the pinna. 20 minutes and 2 hours after the second exposure has released the challenge reaction, the test solution is applied at the site of the second exposure. Evaluation of the inhibition of inflammation with the test substance is effected by reference to an untreated group treated with the solvent used for dissolving the test substance, alone. 24 hours after the second exposure the animals are killed and the separated pinnae are weighted. The difference in weight between the two pinnae is used for evaluation; the individual differences in the test group and in the solvent control group are statistically compared (by simple variance analysis with subsequent Dunnet test by normal distribution test if normally distributed, otherwise by […] and Wilcoxon-Mann-Whitney's U-test). The activity of the test substance is indicated in %, based on mean values. […] Ethanol is used as solvent.
# [4] = tested on: TPA-induced dermatitis; assay: TPA-induced dermatitis (mouse), topical administration; assay type: in vivo, NMRI mice; conditions: dimethylacetamide/acetone/ethanol (2/4/4), pinna weight difference 6 hours after irritant
# Protocol: 2. Determination of the Activity after Topical Administration In the Irritant-Induced Dermatitis Model (Mouse) 2.1 TPA-induced Dermatitis: Skin irritation with TPA in test animals is a method for testing substances as to their antiinflammatory activity after local application (Maibach, Lowe, Ed. Models in Dermatology, Vol. 3 [1987] p. 86-92, Karger-Basel). NMRI mice are given 10 μl of a TPA solution on the inner and outer side of the right pinna (2×10 μl/mouse=2×0.5 μg TPA/mouse). The left pinnae remain untreated. Treatment is effected 30 min. after irritation, by application of 2×10 μl of test solution onto the irritated ear surfaces, as described above. The evaluation of the test group is performed by comparison with a group where the right pinna has been treated with only the irritating solution and with the solvent used for the test substance. 6 hours after application of the irritant the animals are killed, the pinnae separated and weighted. The difference in weight of the two pinnae is used for the evaluation, whereby the individual differences of the test groups are statistically compared with the individual differences of the control groups (as under 1.1.). The activity of the test substances is indicated in % on the basis of the average values. The solvent used is a mixture of dimethylacetamide, acetone and ethanol (2/4/4): […]
# [5] = tested on: human keratinocytes; assay: Inhibition of proliferation of human keratinocytes; assay type: cell-based
# Protocol: 5. Inhibition of proliferation of human keratinocytes
# Cultures of human keratinocytes are obtained by trypsination of human foreskin from newborns or obtained as to EpiPack from Clonetics Corp. (San Diego). The keratinocyte cultures are grown in culture flasks in a supplemented keratinocyte medium (KGM). The passages 3 to 5 of 80-90% confluent keratinocytes are resuspended in KGM at a concentration of 1×10^5 cells/ml, and either 0.1 ml each of this cell suspension is added into a 96-vells microtiter plate or 1 ml each of this cell suspension are added into a 24-wells plate in the presence of test substance. The cells are grown for 48 hours at 37° and 5% CO2. ^3H-thymidine is incorporated during the last 16 hours (microtiter plate, 1 μCi/well), the cells are checked for their morphology, washed thrice with ice-cold, deficient PBS and twice with trichloroacetic acid, solubilized in 100 μl 0.1 N NaOH containing 1% SDS, and the radioactivity is measured. Alternatively, cells from the 24-well plate are trypsinized (trypsin/EDTA), checked for viability by trypan blue exclusion, and triple aliquots are counted in a cell counter.
# [6] = tested on: DNFB contact allergy; assay: DNFB allergy (swine), topical administration; assay type: in vivo; conditions: 5% preparation (solution in 15% dimethylformamide, 42.5% ethanol, 42.5% propylenglycol), applied topically 4 times
# Protocol: On the 1st and 3rd day 100 μl each of a 10% DNFB preparation is applied onto the inner surface of the right and, respectively, left thigh. On the 14th day each swine is marked on the right and the left side of the back with circular markings of 5 cm in diameter (8 markings per animal) and 150 μl each of a 0.5% DNFB preparation is applied thereon. The substances are tested either in the form of galenical compositions or of a solution. The carriers are used in each case as placebo controls.
# The test products are carefully applied 4 times (first 30 minutes, then 6, 24 and 32 hours after release of the challenge reaction). Prior to each application the test areas are evaluated with respect to reddenning, swelling and consistance. The coloration of the test areas is then determined quantitatively with a reflectometer, repeatedly. From the data on brightness (L*) and saturation (C*) the erythema index is computed according to the following formula: 100−L*×C*. The mean erythema index is a reflection of the activity according to the following formula: [formula]
# [7] = tested on: dermatitis induced by croton oil; assay: Dermatitis induced by croton oil (mouse), topical administration; assay type: in vivo, NMRI mice; conditions: dissolved in irritant solution, pinna weight difference 6 hours after irritant
# Protocol: 2. Determination of the Activity after Topical Administration In the Irritant-Induced Dermatitis Model (Mouse) 2.2. Dermatitis Induced by Croton Oil Croton oil is often used, as TPA, in order to induce an irritant-induced dermatitis on which substances can be tested for their anti-inflammatory activity (Maibach, Love, Ed., Models in Dermatology, Vol. 3[1987]p. 86-92, Karger-Basel). NMRI-mice are given 15 μl of 0.23% croton oil (in a mixture of dimethylacetamide, acetone and ethanol 2/4/4) on the inner side of the right pinna. Treatment is effected simultaneously with the irritation, the test substance being dissolved in the solution of irritant applied at the auricular test site. Evaluation of the test group is performed by comparison of the inflammation with a group receiving only the irritant solution on the pinna. The animals are killed 6 hours after application of the irritant, the pinnae separated and weighted. The difference between the weights of the two individual pinnae is used for evaluation, by statistical comparison of the single differences in the test group with the single differences in the control group (as under 1.1.). The activity of the test substances is indicated in % based on average values.
# [8] = tested on: human polymorphonuclear neutrophil leukocytes; assay: Inhibition of A 23187-stimulated oxidative burst (chemiluminescence) in PMNL; assay type: cell-based; conditions: minimal inhibiting concentration with significant inhibition of all 3 chemiluminescence parameters; calcium ionophor A 23187 stimulus
# Protocol: as §1, §2
SMILES,inhibition at 1 µM [1] [%],MIC (μM) (FMLP) [2] [µM],% inhibition ([3]; 0.005 % concentration) [%],% inhibition ([4]; 1.2 % concentration) [%],% inhibition ([4]; 3.6 % concentration) [%],% inhibition ([7]; 0.4 % concentration) [%],% inhibition ([7]; 1.2 % concentration) [%],% inhibition ([7]; 3.6 % concentration) [%],MIC (μM) (A 23187) [8] [µM],further results
"C=CC[C@@H]1/C=C(\C)C[C@H](C)C[C@H](OC)[C@H]2O[C@@](O)(C(=O)C(=O)N3CCCC[C@H]3C(=O)O[C@H](/C(C)=C/[C@@H]3CC[C@@H](O)[C@H](OC)C3)[C@H](C)[C@@H](O)CC1=O)[C@H](C)C[C@@H]2OC [Compound A, 17-Allyl-1,14-dihydroxy-12-[2-(4-hydroxy-3-methoxycyclo-hexyl)-1-methylvinyl]-23,25-dimethoxy-13,19,21,27-tetramethyl-11,28-dioxa-4-azatricyclo[22.3.1.0^4,9]octacos-18-ene-2,3,10,16-tetraone]",30,0.005,52,52,56,52,64,85,0.05,"% inhibition ([3]; 0.0005 % concentration): 35%; % inhibition ([3]; 0.002 % concentration): 38%; % inhibition ([3]; 0.01 % concentration): 65%; % inhibition ([3]; 0.13 % concentration): 65%; inhibition at 0.5 µM ([5]; Homo sapiens, Keratinocyte, 0.5 μM, 48 hours, read-out: % inhibition compared to control): 57%; inhibition at 1 µM ([5]; Homo sapiens, Keratinocyte, 1 μM, 48 hours, read-out: % inhibition compared to control): 74%; inhibition at 5 µM ([5]; Homo sapiens, Keratinocyte, 5 μM, 48 hours, read-out: % inhibition compared to control): 94%; reduction in proliferation ([5]; concentration range from 0.5 to 5 μM): dose-dependent reduction in proliferation; clinical evaluation of the test sites / activity [6]: the treated areas can hardly be distinguished from the adjacent normal skin"
"CCCC1C=C(C)CC(C)CC(OC)C2OC(O)(C(=O)C(=O)N3CCCCC3C(=O)OC(C(C)=CC3CCC(O)C(OC)C3)C(C)C(O)CC1=O)C(C)CC2OC (stereo not shown) [Compound B, 1,14-dihydroxy-12-[2-(4-hydroxy-3-methoxycyclohexyl)-1-methylvinyl]-23,25-dimethoxy-13,19,21,27-tetramethyl-17-propyl-11,28-dioxa-4-azatricyclo[22.3.1.0^4,9]octacos-18-ene-2,3,10,16-tetraone]",60,0.01,60,–,–,–,–,–,0.01,–
"C=CCC1C=C(C)CC(C)CC(OC)C2OC(O)(C(=O)C(=O)N3CCCCC3C(=O)OC(C(C)=CC3CCC(O)C(OC)C3)C(C)C=CC1=O)C(C)CC2OC (stereo not shown) [Compound C, 17-allyl-1-hydroxy-12-[2-(4-hydroxy-3-methoxycyclohexyl)-1-methylvinyl]-23,25-dimethoxy-13,19,21,27-tetramethyl-11,28-dioxa-4-azatricyclo[22.3.1.0^4,9]octacosa-14,18-diene-2,3,10,16-tetraone]",60,0.5,–,–,–,–,–,–,5,–
"C=CCC1C=C(C)CC(C)CC(OC)C2OC(O)(C(=O)C(=O)N3CCCCC3C(=O)OC(C(C)=CC3CCC(OC(C)=O)C(OC)C3)C(C)C(OC(C)=O)CC1=O)C(C)CC2OC (stereo not shown) [Compound D, 14-acetoxy-12-[2-(4-acetoxy-3-methoxycyclohexyl)-1-methylvinyl]-17-allyl-1-hydroxy-23,25-dimethoxy-13,19,21,27-tetramethyl-11,28-dioxa-4-azatricyclo[22.3.1.0^4,9]octacos-18-ene-2,3,10,16-tetraone]",–,<0.5,–,–,–,–,–,–,0.5,–
"C=CCC1C=C(C)CC(C)CC(OC)C2OC(O)(C(=O)C(=O)N3CCCCC3C(=O)OC(C(C)=CC3CCC(OC(C)=O)C(OC)C3)C(C)C(O)CC1=O)C(C)CC2OC (stereo not shown) [Compound E, 12-[2-(4-acetoxy-3-methoxycyclohexyl)-1-methylvinyl]-17-allyl-1,14-dihydroxy-23,25-dimethoxy-13,19,21,27-tetramethyl-11,28-dioxa-4-azatricyclo[22.3.1.0^4,9]octacos-18-ene-2,3,10,16-tetraone]",–,<0.5,–,–,–,–,–,–,0.05,–
"COc1ccc2c(c1)c(CC(=O)O)c(C)n2C(=O)c1ccc(Cl)cc1 [Indomethacin, reference compound]",–,–,–,26,31,11,63,96,–,–
